{
  "source": "patent US5958966A",
  "about": "“Treatment of aberrant cellular states with biomodulators” (University of New Mexico, priority 1995, dated 1999)",
  "key": {"plaque forming cells": {"test_system": "plaque forming cells", "conditions": "cited from earlier work"}, "solid tumor models": {"test_system": "solid tumor models", "conditions": "Dennis 1986, 1989, 1990; cited from earlier work"}, "canine glioma (CG) cells [1]": {"test_system": "canine glioma (CG) cells", "test": "cell surface oligosaccharide display of canine glioma cells (lectin binding, Scatchard, Gibb's Free Energy)", "assay_type": "cell-based", "conditions": "control 14.9 kcal", "excerpt": "Taken together these affinity differences account for almost 10 kcal of additional binding energy retrievable from interactions in the case of the IMR-90s which is unavailable to the CGs. […] This treatment regimen results in an increase in the Tg of the cells as well as changes in the proton linewidth of unfrozen water (shown below). […] This display more closely resembles that of the growth regulated IMR-90s. It should be noted that the actual lines on these figures are visual estimates however, the data in the boxes are calculated values. It is these values that are used to estimate the GFE for comparison purposes.\n(§1) The cell surface oligosaccharide display was assessed by methods developed previously. In brief, cells from a sub-culturing were aliquotted into 96 well trays at 5×10^5 cells per ml, 100 μL aliquots. After 16 hours of culture the cells were washed, fixed, and blocked with 0.1% BSA/PBS. Optimal lectin concentrations (5 μg/ml)were used to give 80 to 90% saturation of the available sites. Three carbohydrate ligands at 10 μg concentrations in triplicate or quadruplicate were then used to prepare competition curves for the lectin binding. The Bound over Free (B/F) ratio was calculated and the Ligand microprocessor program was used to determine the optimal fit of the data to a polynomial generated model. The Gibb's Free Energy (GFE) was calculated from the Scatchard data on the competition assay by the following equation: GFE=-RT 1n Kequit. The proton NMR linewidth measurements were conducted as described previously."}, "canine glioma (CG) cells [2]": {"test_system": "canine glioma (CG) cells", "test": "proton NMR T-2* linewidth of canine glioma cells", "assay_type": "cell-based", "design": "T-2* linewidth / T-2* linewidth after treatment withdrawal / T-2* linewidth after t-butanol extraction: unit not given here", "conditions": "for T-2* linewidth after treatment withdrawal: 4 weeks treatment then 1 week without, mean ± SD of 3; for T-2* linewidth after t-butanol extraction: treated CG cells", "description": "The cells used for all these experiments are between passage 30 and passage 75.\nas §1, with “After 16 hours of culture the cells were washed, fixed, and blocked with 0.1% BSA/PBS.” left out"}, "α-mannosidase II": {"test_system": "α-mannosidase II", "conditions": "cited from earlier work"}, "lymphoid IL-2R / LAK": {"test_system": "lymphoid IL-2R / LAK", "conditions": "Bowlin et al. and further work; listed as Sw; cited from earlier work"}, "B16 melanoma cells": {"test_system": "B16 melanoma cells", "test": "effect of swainsonine on B16 melanoma solid tumor growth", "assay_type": "in vivo, mouse", "conditions": "for inhibition of B16 growth: 1.0, 0.01 and 0.001 μg Sw (p<0.5)", "description": "The B16 melanoma cells were purchased from American Type Culture Collection (ATCC). They were maintained in complete A-MEM (SIGMA) (with 10% fetal calf serum (FCS) (Sigma), 100 U/ml penicillin (Sigma), 100 μg/ml streptomycin (Sigma) and 2 mM utamine (Sigma)) in Corning 75 cm^2 straight necked flasks (T75) and grown with 5.5% CO2 in air with 95% humidity in a New Brunswick Scientific water jacketed incubator. […] They were harvested using 1× Trypsin-EDTA (Sigma), centrifuged at 100×g with a Beckman TJ6 centrifuge, counted using a hemocytometer and stained with trypan blue to determine viability. The cells used for injection into the mice were washed three times in phosphate buffered saline (PBS), counted and resuspended in PBS at a final concentration of 6×10^6 cells per ml.\nThe swainsonine, purchased from Boehringer Mannheim, was initially suspended in PBS at 100 μg/ml. Subsequent dilutions utilized in the following experiments were made in PBS.\nFifteen female C57B1/6 mice (6 weeks old, from Harlan Sprague Dawley Laboratories) were treated 3 times per week on a Monday-Wednesday-Friday (MWF) schedule for three weeks prior to the injection of the 6×10^5 B16 melanoma cells. The treatment consisted of 0.1 ml (total volume) intraperitoneal injections of swainsonine in the mornings before 9:00 am. The treatment groups were as follows:\nThe MWF treatment with the swainsonine continued after the tumor cell injection until the termination of the study. Once the tumor was palpable, electronic calipers were used to measure the length (l), width (w) and depth (d) of the tumor. The volume of the tumor was then determined by V=πr^2 ×d, with the assumption that the tumor is a […], then r=(l+w)/4.\nThe effect of swainsonine on the growth of B16 melanoma solid tumors in vivo was investigated by pretreating the mice for 3 weeks and then injecting melanoma cells into the right shoulder area. Palpable tumors in the control group (0.0 μg Sw) were present on day 5 post tumor cell injection. These tumors were the size of a grain of rice and could not be accurately measured. FIG. 66 graphically presents tumor growth rate versus time. Tumors whose size could be reliably measured were present on day 7 in the controls (Table I). […] This was a delay of two day in both instances. The 0.1 μg Sw slowed growth of the melanoma tumor. The tumors in the 0.1 μg Sw group were 74% (p=0.03) smaller in size on day 9 compared to the controls and 68% (p=0.003) smaller on day 11."}},
  "note": "Entries after “also recorded” stand apart in the source; their conditions may differ.",
  "data": [
    {"smiles": "O[C@H]1[C@H]2[C@H](O)CCCN2C[C@H]1O", "note": "[Swainsonine, swainsonine]", "values": [
      {"measurement": "PFC numbers, SW alone", "setting": "plaque forming cells; SW alone", "value": "no changes in PFC numbers"},
      {"measurement": "antibody formation after immunosuppressive factor", "setting": "plaque forming cells; Sw 3.7-100 mg/kg i.p. 5 days", "value": "return to normal levels of antibody production"},
      {"measurement": "growth in other solid tumor models", "setting": "solid tumor models", "value": "delay growth in several other solid tumor models"},
      {"measurement": "Gibb's Free Energy", "setting": "canine glioma (CG) cells [1]; 2 cycles", "value": 15.2, "unit": "kcal"},
      {"measurement": "Gibb's Free Energy", "setting": "canine glioma (CG) cells [1]; 4 cycles", "value": 20.5, "unit": "kcal"},
      {"measurement": "Gibb's Free Energy", "setting": "canine glioma (CG) cells [1]; 7 cycles", "value": 21.9, "unit": "kcal"},
      {"measurement": "T-2* linewidth after treatment withdrawal", "setting": "canine glioma (CG) cells [2]; 213 k", "value": "520 ± 26"},
      {"measurement": "T-2* linewidth after treatment withdrawal", "setting": "canine glioma (CG) cells [2]; 223 k", "value": "510 ± 18"},
      {"measurement": "T-2* linewidth after treatment withdrawal", "setting": "canine glioma (CG) cells [2]; 233 k", "value": "430 ± 15"},
      {"measurement": "T-2* linewidth after treatment withdrawal", "setting": "canine glioma (CG) cells [2]; 243 k", "value": "360 ± 10"},
      {"measurement": "linewidth after withdrawal versus untreated control", "setting": "canine glioma (CG) cells [2]; 4 weeks treatment, 1 week withdrawal", "value": "still significantly different from control values"},
      {"measurement": "linewidth change", "setting": "canine glioma (CG) cells [2]; CG cells, biomodulator treatment versus control, listed as Sw", "value": "significant (P>0.01) decreases in linewidth; also recorded: higher level of linewidth reduction than the PWM treatment"},
      {"measurement": "T-2* linewidth", "setting": "canine glioma (CG) cells [2]; Four week of treatment, 213 k, mean ± SD of triplicate", "value": "480 ± 35"},
      {"measurement": "T-2* linewidth", "setting": "canine glioma (CG) cells [2]; Four week of treatment, 223 k, mean ± SD of triplicate", "value": "330 ± 40"},
      {"measurement": "T-2* linewidth", "setting": "canine glioma (CG) cells [2]; Four week of treatment, 233 k, mean ± SD of triplicate", "value": "300 ± 8"},
      {"measurement": "T-2* linewidth", "setting": "canine glioma (CG) cells [2]; Four week of treatment, 243 k, mean ± SD of triplicate", "value": "230 ± 10"},
      {"measurement": "T-2* linewidth", "setting": "canine glioma (CG) cells [2]; One week of treatment, 213 k", "value": 580},
      {"measurement": "T-2* linewidth", "setting": "canine glioma (CG) cells [2]; One week of treatment, 223 k", "value": 325},
      {"measurement": "T-2* linewidth", "setting": "canine glioma (CG) cells [2]; One week of treatment, 233 k", "value": 285},
      {"measurement": "T-2* linewidth", "setting": "canine glioma (CG) cells [2]; One week of treatment, 243 k", "value": 265},
      {"measurement": "T-2* linewidth after t-butanol extraction", "setting": "canine glioma (CG) cells [2]; 213 k, extracted control 367 ± 15", "value": "316 ± 33"},
      {"measurement": "T-2* linewidth after t-butanol extraction", "setting": "canine glioma (CG) cells [2]; 223 k, extracted control 337 ± 29", "value": "271 ± 13"},
      {"measurement": "T-2* linewidth after t-butanol extraction", "setting": "canine glioma (CG) cells [2]; 233 k, extracted control 299 ± 30", "value": "243 ± 29"},
      {"measurement": "T-2* linewidth after t-butanol extraction", "setting": "canine glioma (CG) cells [2]; 243 k, extracted control 229 ± 9", "value": "194 ± 7"},
      {"measurement": "inhibition of α-mannosidase II / anticancer effects", "setting": "α-mannosidase II", "value": "known to have anticancer effects possibly mediated through its inhibition of α-mannosidase II"},
      {"measurement": "effect on IL-2R expression, IL-2 induced proliferation and LAK induction", "setting": "lymphoid IL-2R / LAK", "value": "augmented lymphoid IL-2R expression and IL-2 induced proliferation following mitogenic stimulation; also recorded: augmented the LAK induction at normally sub-optimal stimulation doses"},
      {"measurement": "delay of onset of tumor growth", "setting": "B16 melanoma cells; 0.1 μg Sw", "value": "two"},
      {"measurement": "tumor size reduction versus control", "setting": "B16 melanoma cells; 0.1 μg Sw, day 9, p=0.03", "value": 74, "unit": "%"},
      {"measurement": "tumor size reduction versus control", "setting": "B16 melanoma cells; 0.1 μg Sw, day 11, p=0.003", "value": 68, "unit": "%"},
      {"measurement": "first day of palpable tumors", "setting": "B16 melanoma cells; 0.1 μg Sw, control day 5", "value": 7, "unit": "days"},
      {"measurement": "first day of measurable tumors", "setting": "B16 melanoma cells; 0.1 μg Sw, control day 7", "value": 9, "unit": "days"},
      {"measurement": "effect on growth", "setting": "B16 melanoma cells; 1.0 μg Sw", "value": "causes enhanced growth"},
      {"measurement": "inhibition of B16 growth", "setting": "B16 melanoma cells", "value": "no effect on delaying growth"},
      {"measurement": "inhibition of B16 growth", "setting": "B16 melanoma cells; listed as Sw", "value": "less effective at inhibiting the B16 growth"}
    ]}
  ]
}
